Results as given in patent US11141410B2 (MERCK SHARP & DOHME CORP., priority 2015, dated 2021).
Where two headings read alike, the source gives them in different places.

Assays:
MRSA COL (MB 5393) = assay: In Vivo Murine Systemic Infection Model; parameters: species or system Female Balb/C mice; details: sc tid; for Bacteria recovered: kidneys 24 h post challenge, neutropenic mice
Procedure: The murine systemic infection model determines the therapeutic efficacy of TarO inhibitor/β-lactam combinations in vivo. Staphylococci bacteria can cause a systemic infection and establish a robust growth in the kidneys of the infected animal. MRSA COL can establish an infection even in the presence of β-lactam antibiotic due MRSA COL resistance to β-lactam antibiotics.
Female Balb/C mice were rendered neutropenic (immune suppressed) with a single 250 mg/kg intraperitoneal (ip) dose of cyclophosphamide on […]. MRSA COL (MB 5393) was grown for 16 hours in trypticase soy broth (TSB) at 37° C. and 0.5 mL of diluted culture (˜1×10^4 cfu) was administered intraperitoneal (IP). The TarO inhibitor and β-lactam antibiotic were administered alone or in combination by subcutaneous route at 2, 5 and 8 hr. post challenge (sc, tid). Twenty four hours post challenge mice were euthanized and the kidneys harvested, weighed, homogenized and plated to measure the total number of bacteria recovered as colony forming unit (CFU) remaining in compound treated groups as compared to vehicle (saline) or β-lactam antibiotic alone groups (statistical analyses was determined by one way ANOVA).

MRSA COL (MB5393) [1] = assay: TarO Inhibitor/β-Lactam Synergy Assay (growth, OD600); assay type: cell-based; details: Staphylococcus aureus, read-out: MITC95 TarO inhibitor alone, Bacteria: SA_MB5393
MRSA COL (MB5393) [2] = assay: as above; assay type: cell-based, Staphylococcus aureus; details: for MITC95 TarO inhibitor + 4 μg/mL IPM; Bacteria: SA_MB5393: in combination with 4 μg/mL imipenem (IPM); for MITC95 TarO inhibitor + 8 μg/mL DCX; Bacteria: SA_MB5393: in combination with 8 μg/mL dicloxacillin (DCX)
Procedure, shortened: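 TarO inhibitors titrated 2-fold from 200 μM (2% DMSO) against MRSA COL, 5×10^5 CFU in CAMHB, with β-lactam fixed at clinical breakpoint (imipenem 4 μg/ml or dicloxacillin 8 μg/ml). Incubated 20 h at 37 °C without shaking; relative growth read as OD600.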

[3] = TarO inhibitor alone, >200 μM = 95% growth inhibition not achieved, 20 hours at 37° C.

Row | Structure (SMILES) | IC95 (MRSA COL (MB5393) [1]; [3]) [µM] | MITC95 TarO inhibitor + 4 μg/mL IPM; Bacteria: SA_MB5393 (MRSA COL (MB5393) [2]) [µM] | MITC95 TarO inhibitor + 8 μg/mL DCX; Bacteria: SA_MB5393 (MRSA COL (MB5393) [2]) [µM] | further results
1 | C[C@H]1[C@@H](c2cccc(C(F)(F)F)c2)OC(=O)N1C(=O)NCc1cncc2ccccc12 [Example 18, (4S,5R)-N-(isoquinolin-4-ylmethyl)-4-methyl-2-oxo-5-[3-(trifluoromethyl)phenyl]-1,3-oxazolidine-3-carboxamide] | > 200 | 0.23 | 1.95 | Fold reduction vs. vehicle alone (MRSA COL (MB 5393); TarO inhibitor alone 50 mg/kg): −0.9; Bacteria recovered (MRSA COL (MB 5393); TarO inhibitor alone 50 mg/kg): 6.6×10^7 cfu/g kidney
2 | C[C@H]1[C@@H](c2cc(C(F)(F)F)cc(C(F)(F)F)c2)OC(=O)N1C(=O)NCc1cncc2ccccc12 [Example 1, (4S,5R)-5-(3,5-bis(trifluoromethyl)phenyl)-N-(isoquinolin-4-ylmethyl)-4-methyl-2-oxooxazolidine-3-carboxamide] | > 200 | 0.03 | 0.39 | –
3 | C[C@H]1[C@@H](c2ccc(F)c(F)c2)OC(=O)N1C(=O)CCc1cncc2ccccc12 [Example 82, (4S,5R)-5-(3,4-difluorophenyl)-3-(3-isoquinolin-4-ylpropanoyl)-4-methyl-1,3-oxazolidin-2-one] | > 200 | 9.38 | – | –
4 | C[C@@H](O)[C@H]1C(=O)N2C(C(=O)O)=C(SCCN=CN)C[C@H]12 [Imipenem, imipenem, reference compound] | – | – | – | Fold reduction vs. vehicle alone (MRSA COL (MB 5393); Imipenem alone 5 mg/kg): 4.6; Bacteria recovered (MRSA COL (MB 5393); Imipenem alone 5 mg/kg): 1.3 × 10^7 cfu/g kidney; MITC95 concentration of β-lactam antibiotic alone (MRSA COL (MB5393) [2]; β-lactam alone, MRSA COL): 32 µg/mL
5 | C[C@H]1[C@@H](c2cccc(C(F)(F)F)c2)OC(=O)N1C(=O)NCc1cncc2cccnc12 [Example 15, (4S,5R)-4-methyl-N-(1,6-naphthyridin-8-ylmethyl)-2-oxo-5-[3-(trifluoromethyl)phenyl]-1,3-oxazolidine-3-carboxamide] | > 200 | 0.98 | 4.69 | –
6 | C[C@H]1[C@@H](c2cc(F)cc(C(F)(F)F)c2)OC(=O)N1C(=O)NCc1ccccc1C(F)(F)F [Example 7, (4S,5R)-5-[3-fluoro-5-(trifluoromethyl)phenyl]-4-methyl-2-oxo-N-[2-(trifluoromethyl)benzyl]-1,3-oxazolidine-3-carboxamide] | > 200 | 0.05 | 0.33 | –
7 | COc1cc(C(F)(F)F)cc([C@H]2OC(=O)N(C(=O)NCc3cncc4cccnc34)[C@H]2CO)n1 [Example 64, (4S,5S)-4-(hydroxymethyl)-5-[6-methoxy-4-(trifluoromethyl)pyridin-2-yl]-N-(1,6-naphthyridin-8-ylmethyl)-2-oxo-1,3-oxazolidine-3-carboxamide] | > 200 | 0.94 | 4.38 | –
8 | C[C@H]1[C@@H](c2cc(C(F)(F)F)cc(C(F)(F)F)c2)OC(=O)N1C(=O)/C=C/c1cncc2ccccc12 [Example 100, (4S,5R)-5-(3,5-bis(trifluoromethyl)phenyl)-3-((E)-3-(isoquinolin-4-yl)acryloyl)-4-methyloxazolidin-2-one] | > 200 | 1.60 | – | –
9 | C[C@H]1[C@@H](c2cc(F)cc(C(F)(F)F)c2)OC(=O)N1C(=O)NCc1ccccc1OC(F)F [Example 5, (4S,5R)-N-[2-(difluoromethoxy)benzyl]-5-[3-fluoro-5-(trifluoromethyl)phenyl]-4-methyl-2-oxo-1,3-oxazolidine-3-carboxamide] | > 200 | 0.09 | 0.71 | –
10 | C[C@H]1[C@@H](c2cc(F)cc(C(F)(F)F)c2)OC(=O)N1C(=O)CCc1cncc2ccccc12 [Example 70, (4S,5R)-5-[3-fluoro-5-(trifluoromethyl)phenyl]-3-(3-isoquinolin-4-ylpropanoyl)-4-methyl-1,3-oxazolidin-2-one] | > 200 | 0.19 | 0.91 | –
11 | COc1cc(C(F)(F)F)cc([C@H]2OC(=O)N(C(=O)NCc3cncc4ccccc34)[C@H]2CO)n1 [Example 63, (4S,5S)-4-(hydroxymethyl)-N-(isoquinolin-4-ylmethyl)-5-(6-methoxy-4-(trifluoromethyl)-pyridin-2-yl)-2-oxooxazolidine-3-carboxamide] | – | 0.37 | 1.13 | IC95 (MRSA COL (MB5393) [1]; 20 h): > 200 µM
12 | C[C@H]1[C@@H](c2cc(N(C)C)cc(C(F)(F)F)c2)OC(=O)N1C(=O)NCc1cncc2ccccc12 [Example 98, (4S,5R)-5-[3-(dimethylamino)-5-(trifluoromethyl)phenyl]-N-(isoquinolin-4-ylmethyl)-4-methyl-2-oxo-1,3-oxazolidine-3-carboxamide] | > 200 | 0.01 | 0.41 | –
13 | C[C@H]1[C@@H](c2cc(F)cc(C(F)(F)F)c2)OC(=O)N1C(=O)NCc1ccccc1-n1cccc1 [Example 32, (4S,5R)-5-[3-fluoro-5-(trifluoromethyl)phenyl]-4-methyl-2-oxo-N-[2-(1H-pyrrol-1-yl)benzyl]-1,3-oxazolidine-3-carboxamide] | > 200 | 0.59 | 4.69 | –
14 | COc1cc(C(F)(F)F)nc([C@@H]2OC(=O)N(C(=O)NCc3cncc4ccccc34)[C@H]2C)n1 [Example 96, (4S,5R)—N-(isoquinolin-4-ylmethyl)-5-(4-methoxy-6-(trifluoromethyl)pyrimidin-2-yl)-4-methyl-2-oxooxazolidine-3-carboxamide] | > 200 | 4.17 | 25 | –
15 | C[C@H]1[C@@H](c2cccc(C(C)(F)F)c2)OC(=O)N1C(=O)NCc1cncc2ccccc12 [Example 27, (4S,5R)-5-[3-(1,1-difluoroethyl)phenyl]-N-(isoquinolin-4-ylmethyl)-4-methyl-2-oxo-1,3-oxazolidine-3-carboxamide] | > 200 | 0.39 | 3.65 | –
16 | C[C@H]1[C@@H](c2cccc(F)c2)OC(=O)N1C(=O)CCc1cncc2ccccc12 [Example 80, (4S,5R)-5-(3-fluorophenyl)-3-(3-isoquinolin-4-ylpropanoyl)-4-methyl-1,3-oxazolidin-2-one] | > 200 | 4.69 | – | –
17 | C[C@H]1[C@@H](c2cc(C(F)(F)F)cc(C(F)(F)F)c2)OC(=O)N1C(=O)CCc1cccc2ncccc12 [Example 73, (4S,5R)-5-[3,5-bis(trifluoromethyl)phenyl]-4-methyl-3-(3-quinolin-5-ylpropanoyl)-1,3-oxazolidin-2-one] | > 200 | 0.56 | 6.25 | –
18 | COc1cccc([C@H]2OC(=O)N(C(=O)CCc3cccc4ccccc34)[C@H]2C)n1 [Example 81, (4S,5S)-5-(6-methoxypyridin-2-yl)-4-methyl-3-(3-naphthalen-1-ylpropanoyl)-1,3-oxazolidin-2-one] | > 200 | 0.75 | 100.00 | –
